From patent US20220133652A1, “A FORMULATION FOR IMPROVING SEIZURE CONTROL” (ZOGENIX INTERNATIONAL LIMITED, priority 2019, published 2022)

Assays:
[1] = tested on: super-refractory status epilepticus; assay: Case study: fenfluramine in patient in medically-induced coma, weaning from general anesthesia; assay type: in vivo, human
Description: Fenfluramine was tested on a patient with an established diagnosis Dravet Syndrome (DS) (February, 2008) and having undergone confirmatory genetic testing, they were hospitalized in November 2018 and had been in an intensive care unit (ICU) under general anesthesia for management of super-refractory status epilepticus. At the beginning of the testing period, they had been in the ICU for around 32 days, and multiple attempts to wean them from anesthetic agents (pentobarbital and ketamine) were unsuccessful, with repetitive and then continuous tonic seizures recurring within hours. Table 1, below, provides a complete list of all anti-epileptic drugs (AEDs) assayed in managing the patient's seizures. Some had been determined to lack efficacy, while those marked as current were still being administered.
After these other AEDs failed, the attending physician tested fenfluramine, beginning on Dec. 19, 2018. A baseline echocardiogram was taken with the patient still in ICU setting. The patient's medications (beyond anesthetic agents) at that time included valproic acid, levetiracetam, clobazam, phenobarbital, ketosis, and VNS therapy, and felbamate was most recently added after failure of the last attempt to withdraw anesthesia.
(§1) Fenfluramine was administered as an oral solution via a gastric feeding tube at an initial dose of 0.5 mg/kg/day for about 5 days. An echocardiogram was performed to screen for cardiac valve abnormalities (CVD) and/or pulmonary arterial hypertension (PAH) and to establish a baseline for subsequent echocardiograms which will be used to monitor the patient's cardiovascular status over the treatment period, and repeated approximately every 3 months over the next year of continuing fenfluramine administration. […] After 4 days of fenfluramine administration Patient was able to be weaned from general anesthesia without return to seizures and the immediate crisis resolved, however, seizures began to recur after 3 more days without anesthesia and the fenfluramine dosage was adjusted up to 0.8 mg/kg/day and bolus doses of valproate or phenobarbital were administered as needed. The treating physician assessed the patient as having emerged from the SRSE crisis about 2 weeks after initiation of fenfluramine therapy. The patient remains on fenfluramine, along with levetiracetam, clobazam and valproate, and was discharged from the ICU about 1 month (approximately 32 days) after initiation of fenfluramine therapy.

[2] = Serum samples of patient analyzed for fenfluramine and norfenfluramine; assay type: in vivo, human
Description: as §1

[3] = tested on: self-induced photosensitive seizures; settings: four cases; cited from earlier work
[4] = tested on: pattern sensitivity-induced seizures; settings: one child; cited from earlier work
refractory epilepsy = settings: dose of 0.5 to 1 mg/kg/day, children; cited from earlier work
[5] = reason for withdrawal from the US market in 1997; cited from earlier work

CCNC(C)Cc1cccc(C(F)(F)F)c1 (racemic) [Fenfluramine, (RS)-N-ethyl-1-[3-(trifluoromethyl)phenyl]propan-2-amine]
Duration of administration after which patient was weaned from general anesthesia without return to seizures ([1]; 0.5 mg/kg/day oral solution via gastric feeding tube, adjunctive to other AEDs, one patient): 4 days
Time after initiation of therapy until patient assessed as emerged from the SRSE crisis ([1]; 0.5 then 0.8 mg/kg/day, bolus valproate or phenobarbital as needed): about 2 weeks
Time without anesthesia until seizures began to recur ([1]; after weaning, at 0.5 mg/kg/day, dose then adjusted up to 0.8 mg/kg/day): 3 days
Seizure control in patients with SRSE ([1]; conclusion from the case of patient): improved seizure control
Time after initiation of therapy until discharge from the ICU ([1]; patient remains on fenfluramine with levetiracetam, clobazam and valproate): approximately 32 days
concentration at 20 days after start of dosing ([2]; human, 0.8 mg/kg/day, SUB 001, Visit 1, Timepoint 99, SAE 8 Jan. 2019, fenfluramine oral solution via gastric feeding tube, read-out: Conc. in serum): 17.7 ng/mL
concentration at 21 days after start of dosing ([2]; human, 0.8 mg/kg/day, SUB 001, Visit 2, Timepoint 99, SAE 9 Jan. 2019, fenfluramine oral solution via gastric feeding tube, read-out: Conc. in serum): 17.8 ng/mL
concentration at 22 days after start of dosing ([2]; human, 0.8 mg/kg/day, SUB 001, Visit 3, Timepoint 99, SAE 10 Jan. 2019, fenfluramine oral solution via gastric feeding tube, read-out: Conc. in serum): 22.2 ng/mL
Response of self-induced photosensitive seizures to treatment [3]: responded to treatment
Effect on self-induced seizures [4]: successfully terminated these self-induced seizures
Effect on number of seizures (refractory epilepsy): reduction in the number of seizures
Adverse effects associated with use [5]: cardiac valvular fibrosis and pulmonary hypertension

CC(N)Cc1cccc(C(F)(F)F)c1 (stereo not drawn) [Norfenfluramine]
Conc. in serum ([2]; SUB 001, Visit 1, Timepoint 99, SAE 8 Jan. 2019, fenfluramine oral solution via gastric feeding tube): 23.8 ng/mL
Conc. in serum ([2]; SUB 001, Visit 2, Timepoint 99, SAE 9 Jan. 2019, fenfluramine oral solution via gastric feeding tube): 23.1 ng/mL
Conc. in serum ([2]; SUB 001, Visit 3, Timepoint 99, SAE 10 Jan. 2019, fenfluramine oral solution via gastric feeding tube): 27.6 ng/mL
